Reference: patent US20250179000A1 (Sanford Burnham Prebys Medical Discovery Institute, priority 2021, published 2025)
One block for each compound: values may come before it.

What was measured:
cocaine-seeking in rats = settings: systemic injections; cited from earlier work
cocaine craving = settings: preliminary results in humans; cited from earlier work
[1] = test system: 6-OHDA lesioned nigrostriatal tract; settings: cited from earlier work
SMI-32+ motor neurons = settings: abrogated by anti-GDNF antibodies; cited from earlier work
reserpine-treated rat = settings: cited from earlier work
SOD1G93A mice = settings: cited from earlier work
spinal cord GDNF levels = settings: cited from earlier work
[2] = test system: GDNF mRNA and protein levels in the mouse brain; settings: cited from earlier work
R6/2 mice = settings: cited from earlier work
[3] = test system: cultured spinal cord astrocytes; settings: wild-type and mGlu2 knockout mice, not mGlu3 knockout; cited from earlier work
[4] = test system: nigro-striatal damage induced by 1-methyl-4-phenyl-1,2,3,6-tetrahydropyridine in mice; settings: acute or repeated 0.25 or 3 mg/kg i.p.; tyrosine hydroxylase-positive neuron count; cited from earlier work
Rat mGlu2 = target: T1, Rat mGlu2 (Rattus norvegicus, UniProt P31421); experiment: mGlu receptor in vitro assay, thallium flux through GIRK channels, rat mGlu2; format: cell-based; settings: PAM potency with EC20 glutamate
T1 construct: expressed in transfected cells; host or cells: HEK-293 co-expressing GIRK channels
T1 sequence (P31421 19-872): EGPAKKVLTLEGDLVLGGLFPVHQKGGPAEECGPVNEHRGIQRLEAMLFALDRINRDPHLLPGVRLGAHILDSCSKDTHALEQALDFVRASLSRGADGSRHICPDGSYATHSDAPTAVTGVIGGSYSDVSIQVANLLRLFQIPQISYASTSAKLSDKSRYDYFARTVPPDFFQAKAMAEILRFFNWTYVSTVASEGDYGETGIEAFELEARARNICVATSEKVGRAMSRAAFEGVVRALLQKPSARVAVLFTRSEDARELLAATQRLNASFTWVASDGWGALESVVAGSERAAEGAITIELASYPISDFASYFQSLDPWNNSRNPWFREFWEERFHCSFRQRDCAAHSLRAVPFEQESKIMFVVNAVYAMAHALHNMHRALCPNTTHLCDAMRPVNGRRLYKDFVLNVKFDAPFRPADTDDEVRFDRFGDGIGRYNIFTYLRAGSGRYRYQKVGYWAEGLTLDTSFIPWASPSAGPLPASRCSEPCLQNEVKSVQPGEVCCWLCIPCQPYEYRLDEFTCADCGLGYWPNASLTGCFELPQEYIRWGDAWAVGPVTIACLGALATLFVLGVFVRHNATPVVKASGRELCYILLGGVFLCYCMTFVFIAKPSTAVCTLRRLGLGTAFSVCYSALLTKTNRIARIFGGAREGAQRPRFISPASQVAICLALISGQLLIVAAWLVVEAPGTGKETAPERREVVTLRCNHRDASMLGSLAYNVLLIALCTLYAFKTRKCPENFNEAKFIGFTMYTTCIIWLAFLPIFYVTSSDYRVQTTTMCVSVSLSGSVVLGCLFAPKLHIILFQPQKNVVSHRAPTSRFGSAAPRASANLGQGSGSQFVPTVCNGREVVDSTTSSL
How it was run: (§1)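 HEK-293 cells co-expressing rat mGlu2 or mGlu3 and GIRK, dye-loaded with FluoZin2-AM, compound added about 2.5 min before thallium buffer with EC20 glutamate; potency from the 5-15 s fluorescence slope, 10-point 4-parameter fit. Calcium assay at mGlu3 used TREx293 mGlu3 Gα15 cells induced with tetracycline 20 ng/mL for 20 h.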

Rat mGlu3 = target: T2, Rat mGlu3 (Rattus norvegicus, UniProt P31422); experiment: mGlu receptor in vitro assay (thallium flux through GIRK channels / calcium assay), rat mGlu3; format: cell-based; settings: PAM potency with EC20 glutamate
T2 construct: expressed in transfected cells; host or cells: HEK-293 co-expressing GIRK channels
T2 sequence (P31422 23-879): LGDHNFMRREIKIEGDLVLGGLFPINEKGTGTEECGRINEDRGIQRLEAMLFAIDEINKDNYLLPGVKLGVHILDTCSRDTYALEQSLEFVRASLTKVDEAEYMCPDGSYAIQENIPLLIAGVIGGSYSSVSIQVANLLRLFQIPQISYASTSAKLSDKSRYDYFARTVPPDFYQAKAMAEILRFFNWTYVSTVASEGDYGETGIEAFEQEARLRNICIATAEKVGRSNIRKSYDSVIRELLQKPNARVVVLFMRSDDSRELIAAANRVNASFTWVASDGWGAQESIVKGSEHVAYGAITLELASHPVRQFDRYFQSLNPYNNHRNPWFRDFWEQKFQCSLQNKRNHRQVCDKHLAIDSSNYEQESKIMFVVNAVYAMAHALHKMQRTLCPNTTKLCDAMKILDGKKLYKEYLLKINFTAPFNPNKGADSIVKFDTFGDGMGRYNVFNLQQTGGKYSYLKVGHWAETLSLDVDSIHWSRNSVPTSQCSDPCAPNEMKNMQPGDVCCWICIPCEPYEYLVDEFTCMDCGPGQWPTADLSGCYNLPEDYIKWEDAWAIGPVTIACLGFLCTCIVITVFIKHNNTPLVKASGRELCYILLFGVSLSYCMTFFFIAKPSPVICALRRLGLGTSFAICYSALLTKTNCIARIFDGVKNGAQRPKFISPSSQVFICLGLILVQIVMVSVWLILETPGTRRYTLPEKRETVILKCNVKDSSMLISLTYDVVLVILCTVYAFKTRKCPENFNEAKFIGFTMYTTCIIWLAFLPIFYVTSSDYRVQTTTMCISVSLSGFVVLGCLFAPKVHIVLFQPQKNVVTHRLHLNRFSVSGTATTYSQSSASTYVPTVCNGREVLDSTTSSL
How it was run: as §1

Human mGlu3 = Human mGlu3 (Homo sapiens, UniProt Q14832); experiment: mGlu receptor in vitro assay, human mGlu3; format: cell-based
Human mGlu3, sequence (Q14832 23-879): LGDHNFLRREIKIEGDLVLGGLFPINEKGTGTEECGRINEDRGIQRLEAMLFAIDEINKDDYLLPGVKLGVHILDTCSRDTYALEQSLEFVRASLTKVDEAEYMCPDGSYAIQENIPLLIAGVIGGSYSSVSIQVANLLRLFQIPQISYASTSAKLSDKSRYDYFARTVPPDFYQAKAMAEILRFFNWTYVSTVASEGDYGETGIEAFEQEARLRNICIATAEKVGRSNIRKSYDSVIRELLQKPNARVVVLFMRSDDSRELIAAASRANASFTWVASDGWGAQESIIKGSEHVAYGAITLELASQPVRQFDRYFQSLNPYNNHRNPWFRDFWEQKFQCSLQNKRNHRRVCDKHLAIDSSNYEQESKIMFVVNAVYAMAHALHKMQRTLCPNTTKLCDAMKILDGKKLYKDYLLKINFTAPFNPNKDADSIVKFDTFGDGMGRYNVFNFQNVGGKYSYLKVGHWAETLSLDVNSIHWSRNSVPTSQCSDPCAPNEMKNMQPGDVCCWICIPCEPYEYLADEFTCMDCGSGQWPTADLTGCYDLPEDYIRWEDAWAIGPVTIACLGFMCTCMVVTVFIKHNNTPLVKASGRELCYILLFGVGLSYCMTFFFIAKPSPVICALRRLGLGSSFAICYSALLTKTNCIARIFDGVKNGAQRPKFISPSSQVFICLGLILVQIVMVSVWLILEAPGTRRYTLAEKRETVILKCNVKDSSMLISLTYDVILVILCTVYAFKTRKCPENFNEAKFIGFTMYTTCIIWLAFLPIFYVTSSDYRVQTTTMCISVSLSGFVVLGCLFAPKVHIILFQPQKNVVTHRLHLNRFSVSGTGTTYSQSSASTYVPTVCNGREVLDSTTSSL

Human mGlu2 = Human mGlu2 (Homo sapiens, UniProt Q14416); experiment: mGlu receptor in vitro assay, human mGlu2; format: cell-based
Human mGlu2, sequence (Q14416 19-872): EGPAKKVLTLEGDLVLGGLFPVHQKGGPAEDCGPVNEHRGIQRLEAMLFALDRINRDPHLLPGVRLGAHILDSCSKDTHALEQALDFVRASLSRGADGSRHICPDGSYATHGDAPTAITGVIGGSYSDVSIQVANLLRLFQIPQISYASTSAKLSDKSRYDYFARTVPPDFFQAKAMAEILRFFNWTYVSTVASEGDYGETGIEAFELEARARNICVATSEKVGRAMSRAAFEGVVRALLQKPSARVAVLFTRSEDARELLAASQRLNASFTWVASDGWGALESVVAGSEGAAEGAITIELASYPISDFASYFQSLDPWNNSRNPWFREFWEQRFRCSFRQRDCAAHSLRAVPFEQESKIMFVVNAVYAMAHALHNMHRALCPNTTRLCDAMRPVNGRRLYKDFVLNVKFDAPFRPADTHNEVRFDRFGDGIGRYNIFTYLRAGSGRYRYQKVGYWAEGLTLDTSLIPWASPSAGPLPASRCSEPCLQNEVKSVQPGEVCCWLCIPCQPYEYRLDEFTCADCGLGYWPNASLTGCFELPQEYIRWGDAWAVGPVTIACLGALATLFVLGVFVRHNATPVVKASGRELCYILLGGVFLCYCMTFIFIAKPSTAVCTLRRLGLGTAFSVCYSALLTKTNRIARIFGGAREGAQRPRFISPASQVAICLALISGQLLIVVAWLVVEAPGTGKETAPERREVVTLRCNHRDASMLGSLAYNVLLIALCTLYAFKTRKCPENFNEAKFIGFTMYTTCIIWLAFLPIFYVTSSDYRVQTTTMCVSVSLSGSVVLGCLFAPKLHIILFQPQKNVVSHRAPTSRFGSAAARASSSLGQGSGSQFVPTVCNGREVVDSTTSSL

SMILES: CC(=O)N[C@@H](CS)C(=O)O [N-acetylcysteine]
reinstatement of cocaine-seeking (cocaine-seeking in rats): attenuated
cocaine craving (cocaine craving): attenuated cocaine craving

SMILES: N[C@@]1(C(=O)O)CO[C@H]2[C@H](C(=O)O)[C@H]21 [LY379268]
protection against nigral infusion of 6-OHDA ([1]; 10 mg/kg/day ip, 7 days): some protection
protection against striatal infusion of 6-OHDA ([1]; 10 mg/kg/day ip, 21 days, striatum): significant protection in the striatum
rotational behaviour ([1]; systemic 0.1, 1, 10 mg/kg ip, 1 month after unilateral 6-OHDA lesion): failed to effect rotational behaviour
protection of motor neurons against excitotoxic death (SMI-32+ motor neurons): protected
locomotor activity (reserpine-treated rat; intracerebroventricular 1, 5, 10, 20 nmol, reserpine 5 mg/kg ip): dose-dependent increase in locomotor activity
reserpine-induced akinesia (reserpine-treated rat; systemic 0.1, 1, 10 mg/kg ip): did not reverse reserpine-induced akinesia
neurological disability (SOD1G93A mice; continuous treatment 1 or 5 mg/kg/day): beneficial effect on neurological disability
spinal cord motor neurons (SMI-32+ cell count) (SOD1G93A mice; day 40 of treatment): rescued spinal cordmotor neurons
tolerance to GDNF-enhancing effect (spinal cord GDNF levels; 28 days s.c. osmotic minipumps, 0.5-5 mg/day): No tolerance developed
spinal cord GDNF levels (spinal cord GDNF levels; acute 0.5, 1 or 5 mg/kg i.p., wild-type and mGlu2 knockout mice, not mGlu3 knockout): enhanced spinal cord GDNF levels
expression of glutamate transporter GLT-1 in spinal cord (spinal cord GDNF levels; continuous infusion): enhanced the expression
GDNF mRNA and protein levels ([2]; 0.25-3 mg/kg i.p.): increased
time of peak GDNF mRNA levels ([2]; after injection): 3 h
striatal neuron loss (R6/2 mice; 20 mg/kg daily s.c., at 10 weeks): rescue of a 15-20% striatal neuron loss
motor function (R6/2 mice; 20 mg/kg daily s.c., distance traveled, speed, pauses, straight-line locomotion): normalization of motor function
phenotype in R6/2 mice (R6/2 mice; 20 mg/kg daily subcutaneous, beginning at 4 weeks): dramatically improves the phenotype
GDNF levels in astrocytes [3]: enhanced GDNF levels
protection against nigro-striatal damage [4]: highly protective

EC50 (Rat mGlu2): 35 nM
EC50 (Rat mGlu3): 315 nM
EC50 (Human mGlu3): 126 nM
EC50 (Human mGlu2): 7 nM
SMILES: COc1ccc(C(=O)O)cc1OCCCCCOc1ccc(C(=O)CC(C)(C)C)c(O)c1C [Example 11, 3-{5-[4-(3,3-Dimethylbutanoyl)-3-hydroxy-2-methylphenoxy]pentyloxy}-4-methoxybenzoic acid]

SMILES: COc1ccc(C(=O)O)cc1OCCCCOc1ccc(C(=O)C2CC2)c(O)c1C [compound 60, 3-(4-(4-(Cyclopropanecarbonyl)-3-hydroxy-2-methylphenoxy)butoxy)-4-methoxybenzoic acid]
EC50 (Rat mGlu2): 117 nM
EC50 (Rat mGlu3): > 10000 nM
EC50 (Human mGlu3): 598 nM
EC50 (Human mGlu2): 60 nM

EC50 (Rat mGlu2): 89 nM
EC50 (Rat mGlu3): > 30000 nM
EC50 (Human mGlu3): > 30000 nM
EC50 (Human mGlu2): 14 nM
SMILES: CCCC(=O)c1ccc(OCC2(COc3cccc(C(=O)O)c3C)CC2)c(C)c1O [Example 36, 3-({[(4-Butanoyl-3-hydroxy-2-methylphenoxy)methyl]cyclopropyl}methoxy)-2-methylbenzoic acid]

SMILES: COc1ccc(C(=O)O)cc1OCCCCOc1ccc(C(=O)CC(C)(C)C)c(O)c1 [compound 132, 3-(4-(4-(3,3-Dimethylbutanoyl)-3-hydroxyphenoxy)butoxy)-4-methoxybenzoic acid]
EC50 (Rat mGlu2): 403 nM
EC50 (Rat mGlu3): 309 nM
EC50 (Human mGlu3): 114 nM
EC50 (Human mGlu2): 129 nM
